Test results: patent US8604218B2, “Cytoskeletal active rho kinase inhibitor compounds, composition and use” (Inspire Pharmaceuticals, Inc., priority 2006, dated 2013)

Legend:
ROCK2 = ROCK2 (Homo sapiens (Human), UniProt O75116); test: Rho Kinase Inhibition Assay (IMAP fluorescence polarization); assay type: biochemical; settings: isolated enzyme, 10 μM ATP, 60 minutes at room temperature
NIH/3T3 cells = test: NIH/3T3 Cell Morphology Assay (actin disruption); assay type: cell-based; settings: 1 μM test compound, 60 minutes at 37° C.; score of actin cytoskeleton disruption from 0 (no effect) to 4 (complete disruption), average of at least 2 determinations
Procedure: NIH/3T3 cells were grown in DMEM-H containing glutamine and 10% Colorado Calf Serum. Cells were passaged regularly prior to reaching confluence. Eighteen to 24 hours prior to experimentation, the cells were plated onto Poly-L-Lysine-coated glass bottom 24-well plates. On the day of experimentation, the cell culture medium was removed and was replaced with the same medium containing from 10 nM to 25 μM of the test compound, and the cells were incubated for 60 minutes at 37° C. The culture medium was then removed and the cells were washed with warmed PBS and fixed for 10 minutes with warmed 4% paraformaldehyde. The cells were permeabilized with 0.5% Triton-X, stained with TRITC-conjugated phalloidin and imaged using a Nikon Eclipse E600 epifluorescent microscope to determine the degree of actin disruption. Results were expressed as a numerical score indicating the observed degree of disruption of the actin cytoskeleton at the test concentration, ranging from 0 (no effect) to 4 (complete disruption), and were the average of at least 2 determinations.
All compounds tested show measurable activity in the cell morphology assay, with most of the compounds providing substantial effects on the actin cytoskeleton at the testing concentration (score of 2 at 1 μM). […] These morphology changes are thought to provide the basis for the beneficial pharmacological effects sought in the setting of the disease processes described in this application, specifically the lowering of elevated IOP in hypertensive eyes via increased outflow through the trabecular meshwork.

Sequence of ROCK2 (O75116 11-552): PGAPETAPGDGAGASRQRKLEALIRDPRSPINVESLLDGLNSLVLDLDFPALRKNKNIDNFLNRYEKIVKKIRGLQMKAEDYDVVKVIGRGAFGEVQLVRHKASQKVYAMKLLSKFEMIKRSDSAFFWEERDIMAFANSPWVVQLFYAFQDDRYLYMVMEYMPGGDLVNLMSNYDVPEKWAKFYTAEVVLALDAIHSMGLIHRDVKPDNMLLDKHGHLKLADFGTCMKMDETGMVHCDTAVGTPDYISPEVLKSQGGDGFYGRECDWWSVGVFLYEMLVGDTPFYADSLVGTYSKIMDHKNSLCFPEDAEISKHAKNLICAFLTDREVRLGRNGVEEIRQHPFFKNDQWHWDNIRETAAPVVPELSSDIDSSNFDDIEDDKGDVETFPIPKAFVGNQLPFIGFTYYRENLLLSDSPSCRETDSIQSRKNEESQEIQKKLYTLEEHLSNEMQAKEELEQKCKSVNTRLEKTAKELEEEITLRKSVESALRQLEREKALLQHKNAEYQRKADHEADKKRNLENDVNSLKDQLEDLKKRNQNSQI

Question: Which IC50 (ROCK2) does the source give for `N#Cc1cccc(CN2CCC(Nc3ccc4[nH]ncc4c3)C2)c1` (centres unmarked) [Compound 1.005, 3-((3-(1H-indazol-5-ylamino)pyrrolidin-1-yl)methyl)benzonitrile] here?
Answer: 2290 nM

Question: And the “Cell score at 1 μM” value (NIH/3T3 cells)?
Answer: 1.3

Question: For `CC(=O)Nc1ccc(CN2CCC(Nc3cccc4cnccc34)C2)cc1` (centres unmarked) [Compound 2.008, N-(4-((3-(isoquinolin-5-ylamino)pyrrolidin-1-yl)methyl)phenyl)acetamide], which IC50 (ROCK2) is on record?
Answer: 3650 nM

Question: What about the “Cell score at 1 μM” value (NIH/3T3 cells) of the same compound?
Answer: 1

Question: With `CS(=O)(=O)c1ccc(CN2CCCC(Nc3cccc4cnccc34)C2)cc1` (centres unmarked) [Compound 2.002, N-(1-(4-(methylsulfonyl)benzyl)piperidin-3-yl)isoquinolin-5-amine] as the compound, how does the IC50 (ROCK2) read?
Answer: 2580 nM

Question: What about the “Cell score at 1 μM” value (NIH/3T3 cells) of the same compound?
Answer: 1.8

Question: How did the IC50 (ROCK2) turn out when `CSc1ccc(CN2CC[C@@H](Nc3cccc4cnccc34)C2)cc1` [Compound 2.026, (R)-N-(1-(4-(methylthio)benzyl)pyrrolidin-3-yl)isoquinolin-5-amine] was run?
Answer: 6330 nM

Question: And the “Cell score at 1 μM” value (NIH/3T3 cells)?
Answer: 2

Question: How did the IC50 (ROCK2) turn out when `N#Cc1cccc(CN2CCCC(Nc3ccc4[nH]ncc4c3)C2)c1` (centres unmarked) [Compound 1.002, 3-((3-(1H-indazol-5-ylamino)piperidin-1-yl)methyl)benzonitrile] was run?
Answer: 1230 nM

Question: And the “Cell score at 1 μM” value (NIH/3T3 cells)?
Answer: 1.4

Question: For `CC(=O)Nc1ccc(CN2CCC(Nc3ccc4[nH]ncc4c3)C2)cc1` (centres unmarked) [Compound 1.006, N-(4-((3-(1H-indazol-5-ylamino)pyrrolidin-1-yl)methyl)phenyl)acetamide], which IC50 (ROCK2) is on record?
Answer: 2750 nM

Question: And the “Cell score at 1 μM” value (NIH/3T3 cells)?
Answer: 2

Question: With `c1cc(N[C@H]2CCN(Cc3ccc(C4CC4)cc3)C2)c2ccncc2c1` [Compound 2.019, (S)-N-(1-(4-cyclopropylbenzyl)pyrrolidin-3-yl)isoquinolin-5-amine] as the compound, how does the IC50 (ROCK2) read?
Answer: 4080 nM

Question: With `FC(F)(F)c1cccc(CN2CCC(Nc3cccc4cnccc34)C2)c1` (centres unmarked) [Compound 2.018, N-(1-(3-(trifluoromethyl)benzyl)pyrrolidin-3-yl)isoquinolin-5-amine] as the compound, how does the IC50 (ROCK2) read?
Answer: 632 nM

Question: How did the IC50 (ROCK2) turn out when `c1cc(C2CC2)ccc1CN1CCCC(Nc2ccc3[nH]ncc3c2)C1` (centres unmarked) [Compound 1.020, N-(1-(4-cyclopropylbenzyl)piperidin-3-yl)-1H-indazol-5-amine] was run?
Answer: 251 nM

Question: With `c1cc(CN2CCCC(Nc3ccc4[nH]ncc4c3)C2)cc(C2CC2)c1` (centres unmarked) [Compound 1.021, N-(1-(3-cyclopropylbenzyl)piperidin-3-yl)-1H-indazol-5-amine] as the compound, how does the IC50 (ROCK2) read?
Answer: 553 nM

Question: Which IC50 (ROCK2) does the source give for `Oc1cc(CN2CCCC(Nc3ccc4[nH]ncc4c3)C2)ccc1I` (centres unmarked) [Compound 1.068, 5-((3-(1H-indazol-5-ylamino)piperidin-1-yl)methyl)-2-iodophenol] here?
Answer: 660 nM

Question: With `Clc1ccc(CN2CC[C@@H](Nc3cccc4cnccc34)C2)cc1` [Compound 2.027, (R)-N-(1-(4-chlorobenzyl)pyrrolidin-3-yl)isoquinolin-5-amine] as the compound, how does the IC50 (ROCK2) read?
Answer: 120 nM

Question: Which IC50 (ROCK2) does the source give for `C(#CC1CC1)c1ccc(CN2CCCC(Nc3ccc4[nH]ncc4c3)C2)cc1` (centres unmarked) [Compound 1.044, N-(1-(4-(cyclopropylethynyl)benzyl)piperidin-3-yl)-1H-indazol-5-amine] here?
Answer: 6510 nM

Question: With `C#Cc1ccc(CN2CCC[C@H](Nc3ccc4[nH]ncc4c3)C2)cc1` [Compound 1.077, (S)-N-(1-(4-ethynylbenzyl)piperidin-3-yl)-1H-indazol-5-amine] as the compound, how does the IC50 (ROCK2) read?
Answer: 53.1 nM

Question: Which IC50 (ROCK2) does the source give for `CS(=O)(=O)c1ccc(CN2CCCC(Nc3ccc4[nH]ncc4c3)C2)cc1` (centres unmarked) [Compound 1.001, N-(1-(4-(methylsulfonyl)benzyl)piperidin-3-yl)-1H-indazol-5-amine] here?
Answer: 358 nM

Question: `FC(F)(F)c1cccc(Oc2cccc(CN3CCCC(Nc4ccc5[nH]ncc5c4)C3)c2)c1` (centres unmarked) [Compound 1.070, N-(1-(3-(3-(trifluoromethyl)phenoxy)benzyl)piperidin-3-yl)-1H-indazol-5-amine] was tested. Which IC50 (ROCK2) did it give?
Answer: 6680 nM

Question: Which IC50 (ROCK2) does the source give for `c1cc(CN2CC[C@@H](Nc3cccc4cnccc34)C2)cc(C2CC2)c1` [Compound 2.020, (R)-N-(1-(3-cyclopropylbenzyl)pyrrolidin-3-yl)isoquinolin-5-amine] here?
Answer: 820 nM

Question: Which IC50 (ROCK2) does the source give for `Brc1cccc(CN2CCCC(Nc3ccc4[nH]ncc4c3)C2)c1` (centres unmarked) [Compound 1.045, N-(1-(3-bromobenzyl)piperidin-3-yl)-1H-indazol-5-amine] here?
Answer: 586 nM

Question: With `CS(=O)(=O)Nc1cccc(CN2CCC(Nc3ccc4[nH]ncc4c3)C2)c1` (centres unmarked) [Compound 1.087, N-(3-((3-(1H-indazol-5-ylamino)pyrrolidin-1-yl)methyl)phenyl)methanesulfonamide] as the compound, how does the IC50 (ROCK2) read?
Answer: 280 nM

Question: Which IC50 (ROCK2) does the source give for `Clc1ccc(CN2CCC(Nc3ccc4[nH]ncc4c3)C2)cc1Cl` (centres unmarked) [Compound 1.062, N-(1-(3,4-dichlorobenzyl)pyrrolidin-3-yl)-1H-indazol-5-amine] here?
Answer: 155 nM

Question: Which IC50 (ROCK2) does the source give for `OCCOc1cccc(CN2CCC(Nc3ccc4[nH]ncc4c3)CC2)c1` [Compound 1.130, 2-(3-((4-(1H-indazol-5-ylamino)piperidin-1-yl)methyl)phenoxy)ethanol] here?
Answer: 2710 nM

Question: With `CC(C)c1ccc(CN2CCCC(Nc3ccc4[nH]ncc4c3)C2)cc1` (centres unmarked) [Compound 1.023, N-(1-(4-isopropylbenzyl)piperidin-3-yl)-1H-indazol-5-amine] as the compound, how does the IC50 (ROCK2) read?
Answer: 334 nM

Question: For `CSc1ccc(CN2CC[C@H](Nc3cccc4cnccc34)C2)cc1` [Compound 2.029, (S)-N-(1-(4-(methylthio)benzyl)pyrrolidin-3-yl)isoquinolin-5-amine], which IC50 (ROCK2) is on record?
Answer: 3140 nM

Question: `Clc1ccc(CN2CCC[C@H](Nc3ccc4[nH]ncc4c3)C2)cc1` [Compound 1.081, (S)-N-(1-(4-chlorobenzyl)piperidin-3-yl)-1H-indazol-5-amine] was tested. Which IC50 (ROCK2) did it give?
Answer: 30.1 nM

Question: Which IC50 (ROCK2) does the source give for `OCCOc1cccc(CN2CC[C@@H](Nc3ccc4[nH]ncc4c3)C2)c1` [Compound 1.096, (R)-2-(3-((3-(1H-indazol-5-ylamino)pyrrolidin-1-yl)methyl)phenoxy)ethanol] here?
Answer: 1300 nM

Question: With `NC(=O)COc1cccc(CN2CC[C@@H](Nc3cccc4cnccc34)C2)c1` [Compound 2.040, (R)-2-(3-((3-(isoquinolin-5-ylamino)pyrrolidin-1-yl)methyl)phenoxy)acetamide] as the compound, how does the IC50 (ROCK2) read?
Answer: 273 nM

Question: How did the IC50 (ROCK2) turn out when `Cc1n[nH]c2ccc(NC3CCCN(Cc4ccccc4)C3)cc12` (centres unmarked) [Compound 1.049, N-(1-benzylpiperidin-3-yl)-3-methyl-1H-indazol-5-amine] was run?
Answer: 604 nM

Question: How did the IC50 (ROCK2) turn out when `OCC#Cc1ccc(CN2CCCC(Nc3ccc4[nH]ncc4c3)C2)cc1` (centres unmarked) [Compound 1.042, 3-(4-((3-(1H-indazol-5-ylamino)piperidin-1-yl)methyl)phenyl)prop-2-yn-1-ol] was run?
Answer: 4400 nM

Question: Which IC50 (ROCK2) does the source give for `OCCOc1cccc(CN2CCCC(Nc3ccc4[nH]ncc4c3)C2)c1` (centres unmarked) [Compound 1.039, 2-(3-((3-(1H-indazol-5-ylamino)piperidin-1-yl)methyl)phenoxy)ethanol] here?
Answer: 328 nM

Question: How did the IC50 (ROCK2) turn out when `CC(C)(C)OC(=O)NCc1cccc(CN2CCCC(Nc3ccc4[nH]ncc4c3)C2)c1` (centres unmarked) [Compound 1.057, tert-butyl 3-((3-(1H-indazol-5-ylamino)piperidin-1-yl)methyl)benzylcarbamate] was run?
Answer: 194 nM

Question: With `c1cc(CN2CC[C@H](Nc3cccc4cnccc34)C2)cc(C2CC2)c1` [Compound 2.023, (S)-N-(1-(3-cyclopropylbenzyl)pyrrolidin-3-yl)isoquinolin-5-amine] as the compound, how does the IC50 (ROCK2) read?
Answer: 15700 nM

Question: How did the IC50 (ROCK2) turn out when `CCS(=O)(=O)Nc1cccc(CN2CCC[C@@H](Nc3ccc4[nH]ncc4c3)C2)c1` [Compound 1.123, (R)-N-(3-((3-(1H-indazol-5-ylamino)piperidin-1-yl)methyl)phenyl)ethanesulfonamide] was run?
Answer: 135 nM
